# Source: patent publication US6677466B1, “Method for stabilizing hydrogen peroxide” (DSM Fine Chemicals Austria NFG GmbH & Co KG, priority 1999, dated 2004)
# Assay: O2 evolution from [Mn2O3{Me3tacn}2](PF6)2-catalysed decomposition of H2O2 with stabilizer
# Format: physicochemical
# Protocol: A 50% strength aqueous solution of H2O2 (304 mg; 4.46 mmol) was added to 454 mg (4.46 mmol) of methyl pyruvate and to 535 mg (4.46 mmol) of glyoxylic methyl ester methyl hemiacetal, respectively. In the case of methyl pyruvate, a marked evolution of heat was discovered during the addition. After one hour, the H2O2/α-keto ester mixture was mixed with 1 ml of solvent and added to a suspension of 1.0 mg of [Mn2O3{Me3tacn}2](PF6)2 catalyst in 4 ml of solvent. The suspension was introduced into a 50 ml flask which was maintained at room temperature in a water bath. As a result of this addition, in cases where undissolved catalyst was still present, the catalyst dissolved completely.
# As a comparison, a suspension of 1.0 mg of [Mn2O3{Me3tacn}2](PF6)2 catalyst in 4 ml of solvent was combined with a 50% strength aqueous solution of H2O2 (304 mg; 4.46 mmol) and 1 ml of solvent without stabilizer.
# The amount of oxygen which was evolved from the decomposition of the hydrogen peroxide was determined as a function of time using a Brooks meter, which permitted measurement of the gas flow and the total amount of evolved gas.
structure (smiles),measurement,setting,value
"COC(=O)C(O)OC (stereo not drawn) [GMHA, glyoxylic methyl ester methyl hemiacetal]",O2 evolution V(O2) (Vmax(O2)*100%),"solv. acetic acid, t 5 min",0%
same,O2 evolution V(O2) (Vmax(O2)*100%),"solv. acetic acid, t 10 min",2%
same,O2 evolution V(O2) (Vmax(O2)*100%),"solv. acetic acid, t 15 min",3%
same,O2 evolution V(O2) (Vmax(O2)*100%),"solv. acetic acid, t 20 min",3%
same,O2 evolution V(O2) (Vmax(O2)*100%),"solv. acetic acid, t 25 min",3%
same,O2 evolution V(O2) (Vmax(O2)*100%),"solv. acetic acid, t 30 min",3%
same,O2 evolution V(O2) (Vmax(O2)*100%),"solv. acetic acid, t 35 min",3%
same,O2 evolution V(O2) (Vmax(O2)*100%),"solv. acetic acid, t 40 min",3%
same,O2 evolution V(O2) (Vmax(O2)*100%),"solv. acetic acid, t 50 min",3%
same,O2 evolution V(O2) (Vmax(O2)*100%),"solv. acetic acid, t 60 min",3%
same,O2 evolution V(O2) (Vmax(O2)*100%),"solv. acetic acid, t 70 min",3%
same,O2 evolution V(O2) (Vmax(O2)*100%),"solv. acetic acid, t 80 min",3%
same,O2 evolution V(O2) (Vmax(O2)*100%),"solv. acetone, t 5 min",0%
same,O2 evolution V(O2) (Vmax(O2)*100%),"solv. acetone, t 10 min",0%
same,O2 evolution V(O2) (Vmax(O2)*100%),"solv. acetone, t 15 min",0%
same,O2 evolution V(O2) (Vmax(O2)*100%),"solv. acetone, t 20 min",0%
same,O2 evolution V(O2) (Vmax(O2)*100%),"solv. acetone, t 25 min",0%
same,O2 evolution V(O2) (Vmax(O2)*100%),"solv. acetone, t 30 min",0%
same,O2 evolution V(O2) (Vmax(O2)*100%),"solv. acetone, t 35 min",0%
same,O2 evolution V(O2) (Vmax(O2)*100%),"solv. acetone, t 40 min",0%
same,O2 evolution V(O2) (Vmax(O2)*100%),"solv. acetone, t 50 min",0%
same,O2 evolution V(O2) (Vmax(O2)*100%),"solv. acetone, t 60 min",9%
same,O2 evolution V(O2) (Vmax(O2)*100%),"solv. acetone, t 70 min",12%
same,O2 evolution V(O2) (Vmax(O2)*100%),"solv. acetone, t 80 min",12%
same,O2 evolution V(O2) (Vmax(O2)*100%),"solv. acetonitrile, t 5 min",0%
same,O2 evolution V(O2) (Vmax(O2)*100%),"solv. acetonitrile, t 10 min",0%
same,O2 evolution V(O2) (Vmax(O2)*100%),"solv. acetonitrile, t 15 min",0%
same,O2 evolution V(O2) (Vmax(O2)*100%),"solv. acetonitrile, t 20 min",0%
same,O2 evolution V(O2) (Vmax(O2)*100%),"solv. acetonitrile, t 25 min",0%
same,O2 evolution V(O2) (Vmax(O2)*100%),"solv. acetonitrile, t 30 min",0%
same,O2 evolution V(O2) (Vmax(O2)*100%),"solv. acetonitrile, t 35 min",0%
same,O2 evolution V(O2) (Vmax(O2)*100%),"solv. acetonitrile, t 40 min",0%
same,O2 evolution V(O2) (Vmax(O2)*100%),"solv. acetonitrile, t 50 min",0%
same,O2 evolution V(O2) (Vmax(O2)*100%),"solv. acetonitrile, t 60 min",0%
same,O2 evolution V(O2) (Vmax(O2)*100%),"solv. acetonitrile, t 70 min",0%
same,O2 evolution V(O2) (Vmax(O2)*100%),"solv. acetonitrile, t 80 min",0%
same,O2 evolution V(O2) (Vmax(O2)*100%),"solv. ethyl acetate, t 5 min",0%
same,O2 evolution V(O2) (Vmax(O2)*100%),"solv. ethyl acetate, t 10 min",4%
same,O2 evolution V(O2) (Vmax(O2)*100%),"solv. ethyl acetate, t 15 min",8%
same,O2 evolution V(O2) (Vmax(O2)*100%),"solv. ethyl acetate, t 20 min",9%
same,O2 evolution V(O2) (Vmax(O2)*100%),"solv. ethyl acetate, t 25 min",9%
same,O2 evolution V(O2) (Vmax(O2)*100%),"solv. ethyl acetate, t 30 min",9%
same,O2 evolution V(O2) (Vmax(O2)*100%),"solv. ethyl acetate, t 35 min",9%
same,O2 evolution V(O2) (Vmax(O2)*100%),"solv. ethyl acetate, t 40 min",9%
same,O2 evolution V(O2) (Vmax(O2)*100%),"solv. ethyl acetate, t 50 min",9%
same,O2 evolution V(O2) (Vmax(O2)*100%),"solv. ethyl acetate, t 60 min",9%
same,O2 evolution V(O2) (Vmax(O2)*100%),"solv. ethyl acetate, t 70 min",9%
same,O2 evolution V(O2) (Vmax(O2)*100%),"solv. ethyl acetate, t 80 min",9%
same,O2 evolution V(O2) (Vmax(O2)*100%),"solv. methanol, t 5 min",1%
same,O2 evolution V(O2) (Vmax(O2)*100%),"solv. methanol, t 10 min",1%
same,O2 evolution V(O2) (Vmax(O2)*100%),"solv. methanol, t 15 min",1%
same,O2 evolution V(O2) (Vmax(O2)*100%),"solv. methanol, t 20 min",1%
same,O2 evolution V(O2) (Vmax(O2)*100%),"solv. methanol, t 25 min",1%
same,O2 evolution V(O2) (Vmax(O2)*100%),"solv. methanol, t 30 min",1%
same,O2 evolution V(O2) (Vmax(O2)*100%),"solv. methanol, t 35 min",1%
same,O2 evolution V(O2) (Vmax(O2)*100%),"solv. methanol, t 40 min",1%
same,O2 evolution V(O2) (Vmax(O2)*100%),"solv. methanol, t 50 min",1%
same,O2 evolution V(O2) (Vmax(O2)*100%),"solv. methanol, t 60 min",1%
same,O2 evolution V(O2) (Vmax(O2)*100%),"solv. methanol, t 70 min",1%
same,O2 evolution V(O2) (Vmax(O2)*100%),"solv. methanol, t 80 min",1%
same,O2 evolution V(O2) (Vmax(O2)*100%),"solv. t-butanol, t 5 min",0%
same,O2 evolution V(O2) (Vmax(O2)*100%),"solv. t-butanol, t 10 min",0%
same,O2 evolution V(O2) (Vmax(O2)*100%),"solv. t-butanol, t 15 min",0%
same,O2 evolution V(O2) (Vmax(O2)*100%),"solv. t-butanol, t 20 min",0%
same,O2 evolution V(O2) (Vmax(O2)*100%),"solv. t-butanol, t 25 min",0%
same,O2 evolution V(O2) (Vmax(O2)*100%),"solv. t-butanol, t 30 min",0%
same,O2 evolution V(O2) (Vmax(O2)*100%),"solv. t-butanol, t 35 min",0%
same,O2 evolution V(O2) (Vmax(O2)*100%),"solv. t-butanol, t 40 min",0%
same,O2 evolution V(O2) (Vmax(O2)*100%),"solv. t-butanol, t 50 min",0%
same,O2 evolution V(O2) (Vmax(O2)*100%),"solv. t-butanol, t 60 min",0%
same,O2 evolution V(O2) (Vmax(O2)*100%),"solv. t-butanol, t 70 min",0%
same,O2 evolution V(O2) (Vmax(O2)*100%),"solv. t-butanol, t 80 min",0%
